Read-outs that look alike come from different tables or passages of the source.

Results on nine compounds are retold here after patent publication US8581005B2, “Mitochondrial inhibitors to treat human disease” (Albert Einstein College of Medicine of Yeshiva University, priority 2009, dated 2013).

The test system of test [1] is Sacchromyces cerevisiae strain J47D. In words: In vitro cell proliferation assay (yeast proliferation). The test is classed as cell-based. Also noted: key to Inhibition of yeast proliferation: (+) Complete inhibition (no proliferation); (−) no inhibition (normal proliferation); (+/−) partial inhibition; (i) compound insoluble. As to the method:
(§1) Sacchromyces cerevisiae strain J47D in log phase growth, was plated in 96 well dishes at 1.5×10^4 cells/well in YEPD media. Magmas inhibitors were diluted in DMSO and added at various concentrations (range 0 mM to 1 mM) to each well in triplicate at a final DMSC concentration of 1%. Samples were cultured at 30° C. in a Bioscreen C MBR incubator (Growth Curves USA, Piscataway, N.J.) and optical density (OD) readings were measured every 30 minutes for the indicated time in the plots. Cell proliferation data was analyzed and plotted using Microsoft Excel. Standard deviations were smaller than 2% of the mean OD value (n=3), and each experiment was performed at least two independent times.
Reduced Magmas function caused by siRNA knockdown or by mutations in Magmas causes growth inhibition and cell cycle arrest. To assay whether the compounds were active, their ability to inhibit yeast proliferation was measured. The results obtained in yeast are equivalent to those found in mammalian cells in part because the human homolog is fully functional in yeast and the target region is identical across all eukaryotic species.

Test [2] concerns HUVEC. In words: Viability of human cells, trypan blue dye exclusion. The following applies: for viability of human cells: HUVEC, 48 hrs. Also noted: key to viability of human cells: (+) Viable; (−) dead; (+/−) partial viability. The test is classed as cell-based. The procedure:
(§2) Cell lines derived from human hematological malignancies and glioblastoma multiforme, and human umbilical vascular endothelial cells (HUVEC) were cultured in standard media with the concentrations of 9 indicated in Table 3. Viable cells were scored by trypan blue dye exclusion at 48 hrs. The HUVEC population consisted of a pool of primary cells isolated from the blood vessels of 4 umbilical cords. Each cell type was tested in duplicate in at least three independent experiments.

Test [3] deals with T1, purified yeast Magmas (Saccharomyces cerevisiae, UniProt P42949).
T1 sequence (P42949 1-149): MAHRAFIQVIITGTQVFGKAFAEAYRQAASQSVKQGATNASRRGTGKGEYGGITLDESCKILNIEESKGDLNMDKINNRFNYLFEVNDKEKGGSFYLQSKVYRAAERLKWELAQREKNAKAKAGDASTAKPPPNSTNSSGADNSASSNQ
In words: Binding to Magmas by fluorescence emission spectrum (tryptophan). The procedure:
(§3) The binding of 9 to both purified yeast and mouse Magmas was evaluated. The fluorescence spectrum of tryptophan was measured for the binding to the yeast target and the fluorescence spectrum of tyrosine was measured for the binding to the murine target. The spectral shift observed at varying concentrations of 9 was used to determine the binding constant (FIG. 3).

The subject of test [4] is HeLa cells. Nature of the test: Mitotracker Red mitochondrial activity. The test is classed as cell-based. The conditions noted are these: 6 μM for 12 hours. As to the method: HeLa cells were treated with 6 μM Compound 9 for 12 hours. The cells were then incubated with Mitotracker Red (100 nM) for 15 minutes, washed, fixed with formaldehyde, and examined by fluorescent microscopy. […] This confirms that the invention affects mitochondrial activity.

Test [5] concerns the target T2, purified mouse Magmas (Mus musculus, UniProt Q9CQV1).
T2 sequence (Q9CQV1 1-125): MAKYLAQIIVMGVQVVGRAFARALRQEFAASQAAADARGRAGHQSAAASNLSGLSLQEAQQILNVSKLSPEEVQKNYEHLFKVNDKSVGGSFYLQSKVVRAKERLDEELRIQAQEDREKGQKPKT
In words: Binding to Magmas by fluorescence emission spectrum (tyrosine). The conditions noted are these: murine Magmas, FIG. 3B; read-out: calculated Kd. As to the method: as §3

Test [6] has as its system yeast strains containing several different Magmas mutations expressed on a plasmid. In words: Yeast proliferation assay with Magmas mutations and over-expression. The test is classed as cell-based.
From the text: Mutations in Magmas were introduced by error prone PCR and the changes were identified by sequencing. Only genes with a single amino acid change were further analyzed. The genes encoding the mutations were spliced into plasmid pRS315 containing the selectable […] marker (leu) and transfected into yeast where the wt genomic copy was replaced by a his cassette and the essential Magmas activity was maintained by wt Magmas in the plasmid pRS316 (ura). The plasmid containing the wt Magmas gene was lost by selection in media containing FOA, resulting in yeast strains only expressing the mutant gene. Total yeast protein from each of the strains was separated by SDS-PAGE, and transferred to nitrocellulose membranes. The membranes were sequentially incubated with rabbit anti-Magmas antibody, HRP conjugated goat anti-rabbit antibody and chemiluminescence reagent. The signal was captured with a Fujifilm LAS-3000 Imager and the data analyzed with ImageGage software.
as §1
All of these stains express similar levels of Magmas protein, which is approximately 4 fold higher than the haploid control (Wt genomic).

For test [7], the system named is K562. In words: Viability of human cells, trypan blue dye exclusion. The following applies: 48 hrs. The test is classed as cell-based. More on the design: key: (+) Viable; (−) dead; (+/−) partial viability. As to the method: as §2
The test system of test [8] is Karpas. The test is described as above. The test is classed as cell-based. Also noted: key: (+) Viable; (−) dead; (+/−) partial viability. The following applies: 48 hrs. As to the method: as §2
Test [9] relates to U87. The description is as above. The test is classed as cell-based. Also noted: key: (+) Viable; (−) dead; (+/−) partial viability. The conditions noted are these: 48 hrs. The procedure: as §2
Test [10] relates to Toledo. The description is as above. Also noted: key: (+) Viable; (−) dead; (+/−) partial viability. The conditions noted are these: 48 hrs. The test is classed as cell-based. The procedure:
as §2

In test [11] the test system is Pfeiffer. The test is described as above. The test is classed as cell-based. The conditions noted are these: 48 hrs. Also noted: key: (+) Viable; (−) dead; (+/−) partial viability. The procedure:
as §2

Test [12] has as its system U118. Described as above. More on the design: key: (+) Viable; (−) dead; (+/−) partial viability. The conditions noted are these: 48 hrs. The test is classed as cell-based. The procedure:
as §2

For the compound `c1ccc(C2=Nc3ccccc3OC2)cc1` [Compound 1], the “Effect on yeast proliferation” value in test [1] (doses up to and including 6 μM) is “not effective”.
The same measure, in the same setting: then `O=[N+]([O-])c1ccc2c(c1)N=C(c1ccccc1)CO2` [Compound 2], with “not effective”; and `Clc1ccc2c(c1)N=C(c1ccccc1)CO2` [Compound 3], with “not effective”.
Take `Clc1ccc2c(c1)C=CC(c1ccccc1)O2` (stereo not drawn) [Compound 4]: the “Inhibition of yeast proliferation” value was “−” in test [1] (1 μM), “−” in test [1] (10 μM), “+” in test [1] (100 μM) and “i” in [1] (1 mM).
Regarding `O=[N+]([O-])c1ccc2c(c1)C=CC(c1ccccc1)O2` (stereo not drawn) [Compound 5], the “Inhibition of yeast proliferation” value in test [1] (1 μM), in test [1] (10 μM), in test [1] (100 μM) and in test [1] (1 mM) was “−” each time. Moreover, the “Effect on yeast proliferation” value in [1] (all concentrations) is “inactive”.
As for `Brc1ccc2c(c1)C=CC(c1ccccc1)O2` (stereo not drawn) [Compound 6], the “Inhibition of yeast proliferation” value is “−” in test [1] (1 μM), “+/−” in test [1] (10 μM), “+” in [1] (100 μM) and “+” in test [1] (1 mM). In test [1] (10 μM), the “Effect on yeast proliferation” value is “partially inhibitory”.
Take `Oc1cccc2c1OC(c1ccccc1)C=C2` (stereo not drawn) [Compound 7]: the “Effect on yeast proliferation” value in test [1] (doses up to and including 6 μM) is “not effective”.
Turning to `CCCCCCCCC1C=Cc2cc([N+](=O)[O-])ccc2O1` (stereo not drawn) [Compound 8], the “Inhibition of yeast proliferation” value in test [1] (1 μM) was “−”; in test [1] (10 μM) it was “−”; in test [1] (100 μM) it was “+”; in test [1] (1 mM), “i”.
For the compound `CCC1=C(C)/C(=C/c2ccc(C(=O)NC(=N)N)cc2)CCC1(C)C` [Compound 9], the “Inhibition of yeast proliferation” value was “−” in test [1] (1 μM), “+” in test [1] (10 μM), “+” in test [1] (100 μM) and “+” in test [1] (1 mM). Besides, the “Effect on yeast proliferation” value is “significant and reproducible inhibition” in test [1] (4 μM); “fully inhibited growth” in test [1] (10 μM). In addition, the “lengthening of the time to half maximal growth” value in test [1] (4 μM) came out at 1.8 times. In addition, the “viability of human cells” value in test [2] (2 um), in [2] (4 um), in [2] (6 um), in test [2] (8 um), in [2] (12 um) and in [2] (16 um) was “+” throughout. In addition, the “viability of human cells” value in test [2] (20 um) is recorded as “+/−”; in [2] (24 um) it was “−”; in test [7] (K562, 2 um), “+/−”; in [7] (K562, 4 um) it was “+/−”; in [7] (K562, 6 um), “−”; in [7] (K562, 8 um) it was “−”. Moreover, the “viability of human cells” value in test [7] (K562, 12 um) was “−”; in test [7] (K562, 16 um), “−”; in test [7] (K562, 20 um), “−”; in test [7] (K562, 24 um) it was “−”; in [8] (2 um) it was “+/−”; in test [8] (4 um), “+/−”. Besides, the “viability of human cells” value in test [8] (6 um) is listed as “+/−”; in test [8] (8 um), “−”; in test [8] (12 um), “−”; in test [8] (16 um), “−”; in test [8] (20 um) it was “−”; in test [8] (24 um) it was “−”. The “viability of human cells” value in [9] (U87, 2 um) was “+/−”; in test [9] (U87, 4 um), “+/−”; in [9] (U87, 6 um) it was “−”; in test [9] (U87, 8 um), “−”; in test [9] (U87, 12 um), “−”; in test [9] (U87, 16 um) it was “−”. For the same compound, the “viability of human cells” value in test [9] (U87, 20 um) is recorded as “−”; in test [9] (U87, 24 um), “−”; in test [10] (2 um), “+/−”; in [10] (4 um), “+/−”; in test [10] (6 um), “−”; in [10] (8 um), “−”. In addition, the “viability of human cells” value was “−” in test [10] (12 um); “−” in test [10] (16 um); “−” in test [10] (20 um); “−” in [10] (24 um); “+/−” in test [11] (2 um); “+/−” in test [11] (4 um). For the same compound, the “viability of human cells” value in test [11] (6 um), in test [11] (8 um), in test [11] (12 um), in test [11] (16 um), in test [11] (20 um) and in [11] (24 um) was “−” in each case. Further, the “viability of human cells” value in test [12] (U118, 2 um) is “+/−”; in [12] (U118, 4 um), “−”; in [12] (U118, 6 um), “−”; in [12] (U118, 8 um), “−”; in test [12] (U118, 12 um) it was “−”; in [12] (U118, 16 um), “−”. Further, the “viability of human cells” value in test [12] (U118, 20 um) is “−”; in test [12] (U118, 24 um) it was “−”. The “sensitivity of tumor cell lines relative to normal primary cells (HUVEC)” value in test [2] (tumor cell lines vs HUVEC, viability at 48 hrs) was in the range of 4 to 5 fold. The Kd is 33 µM in test [3] (yeast Magmas, FIG. 3A, read-out: calculated Kd); 34 ± 2 µM in test [3] (yeast target, read-out: binding constant); 36 µM in test [5]. The “Mitotracker Red intensity” value in [4] is on record as “reduced”. Besides, the results for the “Sensitivity of yeast to Compound 9” value in [6] (Magmas A104S), in [6] (Magmas N84T vs Wt plasmid) and in [6] (over-expression of Magmas: Wt plasmid vs Wt genomic) were “increased sensitivity”, “increased resistance” and “reduces sensitivity”, respectively.
